In assay [1] the target is T1, TPα^T337A (Homo sapiens, UniProt P21731, T337A).
T1 construct: expressed in transfected cells
T1 sequence (P21731 1-343 T337A): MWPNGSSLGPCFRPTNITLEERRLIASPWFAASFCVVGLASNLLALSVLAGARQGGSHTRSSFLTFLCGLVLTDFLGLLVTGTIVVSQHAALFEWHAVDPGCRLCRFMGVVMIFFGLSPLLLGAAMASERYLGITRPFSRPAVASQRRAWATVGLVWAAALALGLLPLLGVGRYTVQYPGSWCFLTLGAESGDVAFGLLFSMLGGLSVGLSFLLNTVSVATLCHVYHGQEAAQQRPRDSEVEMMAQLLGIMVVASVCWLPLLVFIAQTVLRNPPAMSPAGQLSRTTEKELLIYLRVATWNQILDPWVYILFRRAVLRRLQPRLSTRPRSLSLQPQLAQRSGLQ
Description: Intracellular calcium mobilization, HEK.TPα^T337A cells. The settings on record: for Δ[Ca2+]i, U46619-induced: HEK.TPα^T337A. It counts as cell-based. Here is the method: Measurement of intracellular calcium mobilization ([Ca^2+]i) in FURA2/AM preloaded HEK 293 cell lines (2 × 10^6 cells/dish), each transiently co-transfected with pADVA (10 μg), and pCMV:Gαq (25 μg), was carried out as previously described. To investigate the effect of GRK2/βARK1 on TP-mediated [Ca^2+]i mobilization, HEK.TPα or HEK.TPβ cells (2 × 10^6 cells/dish) were co-transfected with pADVA (10 μg), pCMV:Gαq (25 μg) along with pRK5:βARK1^495–689 (25 μg), encoding a dominant negative form of GRK2/βARK1[39]. Approximately 48 h post-transfection, cells were harvested by scraping, washed twice in ice-cold PBS and resuspended in HBSSHB (modified Ca^2+/Mg^2+-free Hank's buffered salt solution, containing […], pH 7.67, 0.1% bovine serum albumin (BSA)) buffer at 10^7 cells/ml and incubated in the dark with 5 μM FURA2/AM for 45 min at 37 °C. […] For each measurement of [Ca^2+]i mobilization, aliquots of cells were diluted to 0.825 × 10^6 cells/ml in HBSSHB, 1 mM CaCl2 and FURA2 fluorescence was recorded (2 ml aliquots of cells) at 37^ °C with gentle stirring with a Perkin Elmer-Cetus LS50-B spectrofluorometer at excitation wavelengths of 340 nm and 380 nm and emission wavelength of 510 nm, respectively.
Cells were stimulated with the TP agonist U46619 (1 μM) and changes in [Ca^2+]i mobilization were monitored as a function of time. To assess agonist-mediated homologous desensitization, cells (0.825 × 10^6 cells/ml; 2 ml per assay) were stimulated with 1 μM U46619 (Primary stimulation) or, as a control, with the vehicle for 4 min; thereafter, cells were collected by centrifugation (900×g, 5 min); were washed twice in 2 ml HBSSHB, 1 mM CaCl2; and finally resuspended in 2 ml HBSSHB,1 mM CaCl2 and were left to recover over various time intervals (ranging from 0 to 60 min); thereafter, cells re-stimulated with 1 μM U46619 (Secondary stimulation) and changes in [Ca^2+]i mobilization were monitored as a function of time. […]
Background: Calcium assays in cells follow changes in intracellular calcium, usually with a dye or a luminescent sensor.

In assay [2] the target is T2, TPα (Homo sapiens, UniProt P21731).
T2 construct: expressed in transfected cells
T2 sequence (P21731 1-343): T1 sequence (P21731 1-343 T337A) with A337T
Description: Agonist-mediated TP phosphorylation in whole cells, HEK.TPα. The class given is cell-based. As to conditions: 1 μM U46619 10 min, [32P]orthophosphate labelling, PhosphorImage. Here is the method: Agonist-mediated TP phosphorylation in whole cells (1.8–2 × 10^6 cells/10 cm dish) was performed essentially as previously described. Briefly, cells were transiently co-transfected with pADVA (10 μg), pCMV:Gαq (25 μg) plus pcDNA:βArrestin2 (25 μg) approximately 48 h prior to labelling. Thereafter, cells were washed once in phosphate-free DMEM, 10% dialysed FBS and were metabolically labelled for 60 min in the same medium (2 ml/10 cm dish) containing 100 μCi/ml [^32P] orthophosphate (8000–9000 Ci/mmol) at 37 °C, 5% CO2. Where appropriate, the PKG kinase inhibitor KT 5823 (50 nM) or its vehicle was added during the labelling period. Thereafter, U46619 (1 μM) or an equivalent volume of vehicle (0.01% ethanol in HBS; 20 μl) were added and cells were incubated for 10 min at 37 °C, 5% CO2. Reactions were terminated by transferring the dishes to ice and aspirating the labelled medium and HA-epitope tagged TP receptors were processed and immunoprecipitated using the anti-HA 101R antibody as previously described. Electroblots were then exposed to Xomat XAR (Kodak) film to detect ^32P-labelled proteins. Thereafter, blots were subject to phosphorimage analysis, and the intensities of agonist-induced phosphorylation were expressed in arbitrary units relative to basal (vehicle-stimulated) levels. In parallel experiments, cells were incubated under identical conditions in the absence of [^32P] orthophosphate; HA-tagged TP receptors were immunoprecipitated from the same cell lines using the anti-HA 101R antibody and immunoblots were screened using the anti-HA 3F10 horseradish peroxidase-conjugated antibody.

Numbering of substitutions follows the chain as printed. “And” between values parts separate entries of the source, which are not always exact repeats. Identical values can stand only once.

With `CCCCC[C@H](O)/C=C/[C@@H]1[C@@H](C/C=C\CCCC(=O)O)[C@H]2CO[C@@H]1C2` [U46619], the “Δ[Ca2+]i, U46619-induced” value worked out at 200 ± 9.2 nM in assay [1] (primary 1 μM U46619 4 min) and 49 ± 5 nM in assay [1] (secondary 1 μM U46619 at 15 min). The “secondary U46619 [Ca2+]i response relative to primary response” value in assay [1] (TPα^T337A) is recorded as 25%. Moreover, the “U46619-mediated TPα phosphorylation relative to basal (vehicle)” value in assay [2] is 5–7 fold and 5 fold.

The record behind these values is article PMC2680961, “Homologous desensitization of signalling by the alpha (α) isoform of the human thromboxane A2 receptor: A specific role for nitric oxide signalling” (Biochimica et Biophysica Acta, 2007).
